Data on 42 molecules can be found in ChEMBL document CHEMBL4138153, “Synthesis, monoamine oxidase inhibition activity and molecular docking studies of novel 4-hydroxy-N'-[benzylidene or 1-phenylethylidene]-2-H/methyl/benzyl-1,2-benzothiazine-3-carbohydrazide 1,1-dioxides” (Eur J Med Chem, 2018).

A value given as a limit tells only on which side of the number the result lay.

The target of data set [1] is T1, Amine oxidase [flavin-containing] A (Rattus norvegicus, UniProt P21396).
T1 sequence (P21396 whole entry): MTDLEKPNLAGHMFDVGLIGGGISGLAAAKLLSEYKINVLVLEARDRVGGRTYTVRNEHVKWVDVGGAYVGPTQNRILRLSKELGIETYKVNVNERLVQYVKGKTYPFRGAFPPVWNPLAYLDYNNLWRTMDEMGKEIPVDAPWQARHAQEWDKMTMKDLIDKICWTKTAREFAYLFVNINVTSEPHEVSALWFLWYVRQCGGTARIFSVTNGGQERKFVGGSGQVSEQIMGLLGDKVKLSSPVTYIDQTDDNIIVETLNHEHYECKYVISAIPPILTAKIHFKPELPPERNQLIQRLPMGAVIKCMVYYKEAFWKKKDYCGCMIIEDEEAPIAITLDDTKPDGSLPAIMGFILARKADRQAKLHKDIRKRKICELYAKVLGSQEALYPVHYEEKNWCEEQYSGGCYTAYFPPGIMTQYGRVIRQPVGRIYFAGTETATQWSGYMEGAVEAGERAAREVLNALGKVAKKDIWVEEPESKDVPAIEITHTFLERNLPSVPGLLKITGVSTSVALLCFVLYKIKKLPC
Kind of data set: Inhibition of MAO-A in rat liver mitochondria using p-tyramine as substrate preincubated for 10 mins followed by substrate addition measured after 30 mins in presence of MAO-B inhibitor deprenyl by Amplex red dye-based fluorescence assay.

For data set [2], the species on record is Rattus norvegicus. Kind of data set: Selectivity index, ratio of IC50 for MAO-A in rat liver mitochondria to IC50 for MAO-B in rat liver mitochondria.
Data set [3] has as its target T2, Amine oxidase [flavin-containing] B (Rattus norvegicus, UniProt P19643).
T2 sequence (P19643 whole entry): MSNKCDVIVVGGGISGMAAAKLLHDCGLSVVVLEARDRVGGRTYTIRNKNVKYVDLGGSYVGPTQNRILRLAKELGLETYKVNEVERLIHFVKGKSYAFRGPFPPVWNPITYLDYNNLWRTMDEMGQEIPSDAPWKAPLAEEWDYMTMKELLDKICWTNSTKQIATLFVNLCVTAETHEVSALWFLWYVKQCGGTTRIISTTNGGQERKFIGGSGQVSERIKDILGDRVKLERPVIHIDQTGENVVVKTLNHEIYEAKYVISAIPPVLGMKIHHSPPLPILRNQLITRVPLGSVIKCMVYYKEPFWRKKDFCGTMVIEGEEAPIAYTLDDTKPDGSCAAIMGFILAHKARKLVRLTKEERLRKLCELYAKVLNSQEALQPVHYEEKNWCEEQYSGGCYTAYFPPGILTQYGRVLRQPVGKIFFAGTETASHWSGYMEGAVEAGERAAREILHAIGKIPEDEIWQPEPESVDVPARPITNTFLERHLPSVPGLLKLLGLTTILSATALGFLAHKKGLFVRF
Kind of data set: Inhibition of MAO-B in rat liver mitochondria using p-tyramine as substrate preincubated for 10 mins followed by substrate addition measured after 30 mins in presence of MAO-A inhibitor clorgyline by Amplex red dye-based fluorescence assay.

Data set [4] has as its target T2, Amine oxidase [flavin-containing] B. Kind of data set: Competitive inhibition of MAO-B in rat liver mitochondria using p-tyramine as substrate up to 0.3 uM preincubated for 10 mins followed by substrate addition measured after 30 mins by Lineweaver-burk plot analysis. The conditions noted are these: 0.5 h.

For the molecule `COC(=O)CN1C(=O)c2ccccc2S1(=O)=O`, the IC50 in data set [1] was found to be 1.11 µM; in data set [3], 0.27 µM. The Ratio IC50 in data set [2] worked out at 4.11.
Take `O=C(N/N=C/c1cccc(Cl)c1)C1=C(O)c2ccccc2S(=O)(=O)N1`: the IC50 in data set [1] was determined as 0.35 µM; in data set [3] it was 39.3 µM. Further, the Ratio IC50 in data set [2] came to 0.01.
Consider `C/C(=N\NC(=O)C1=C(O)c2ccccc2S(=O)(=O)N1C)c1ccc(Cl)cc1`, for which the IC50 in data set [1] was 11.2 µM; in data set [3], 0.76 µM. For the same molecule, the Ratio IC50 in data set [2] was 14.7.
`CC(C)c1ccc(/C=N/NC(=O)C2=C(O)c3ccccc3S(=O)(=O)N2Cc2ccccc2)cc1`: the IC50 turned out to be 5.07 µM in data set [1] and 36.8 µM in data set [3]. Also, the Ratio IC50 in data set [2] came out at 0.13.
Take `O=C(N/N=C/c1ccccc1O)C1=C(O)c2ccccc2S(=O)(=O)N1`: the IC50 in data set [1] stood at 5.07 µM; in data set [3], 9.47 µM. Besides, in data set [2], the Ratio IC50 was determined as 0.53.
Regarding `CN1C(C(=O)N/N=C/c2ccc(Cl)cc2)=C(O)c2ccccc2S1(=O)=O`, the values for the IC50 in data set [1] and in data set [3] were 6.12 µM and 15.5 µM, respectively. Besides, in data set [2], the Ratio IC50 turned out to be 0.39.
`Cc1ccc(/C=N/NC(=O)C2=C(O)c3ccccc3S(=O)(=O)N2C)cc1`: the IC50 in data set [1] was found to be 4.85 µM; in data set [3], 24.1 µM. Besides, the Ratio IC50 in data set [2] was 0.2.
Take `C/C(=N\NC(=O)C1=C(O)c2ccccc2S(=O)(=O)N1Cc1ccccc1)c1ccc(Cl)cc1`: the figures for the IC50 in data set [1] and in data set [3] were 0.33 µM and 10.1 µM, respectively. The Ratio IC50 in data set [2] is 0.03.
For `O=C(NN=C1CCCC1)C1=C(O)c2ccccc2S(=O)(=O)N1`, in that order: at least 100 µM, 0.92 µM and over 109.
For `COc1ccc(/C=N/NC(=O)C2=C(O)c3ccccc3S(=O)(=O)N2C)cc1` the same measures were 18.9 µM, 23.1 µM and 0.82.
Take `CN1C(C(=O)NN=C2CCCC2)=C(O)c2ccccc2S1(=O)=O`: the IC50 was 0.38 µM in data set [1] and 8.61 µM in data set [3]. In addition, the Ratio IC50 in data set [2] came out at 0.04.
Take `CC(C)c1ccc(/C=N/NC(=O)C2=C(O)c3ccccc3S(=O)(=O)N2)cc1`: the half-maximal inhibitory concentration (IC50) is at least 100 µM in data set [1] and 38.1 µM in data set [3]. Moreover, the Ratio IC50 in data set [2] is over 2.62.
Take `NNC(=O)C1=C(O)c2ccccc2S(=O)(=O)N1`: the IC50 in data set [1] came to 1.58 µM; in data set [3], 4.33 µM. For the same molecule, the Ratio IC50 in data set [2] turned out to be 0.36.
For `O=C(NN=C1CCCC1)C1=C(O)c2ccccc2S(=O)(=O)N1Cc1ccccc1`, in that order: at least 100 µM, 0.99 µM and over 101.
For `COC(=O)C1=C(O)c2ccccc2S(=O)(=O)N1`, the IC50 in data set [1] was determined as 2.97 µM; in data set [3], 0.21 µM. In data set [4], the “inhibition (INH)” value is recorded as “Active”. For the same molecule, the Ratio IC50 in data set [2] stood at 14.1.
Consider `CCOc1ccc(/C=N/NC(=O)C2=C(O)c3ccccc3S(=O)(=O)N2C)cc1`, for which the 50% inhibitory concentration (IC50) in data set [1] turned out to be 0.32 µM; in data set [3] it was 0.76 µM. The Ratio IC50 in data set [2] was 0.42.
Take `C/C(=N\NC(=O)C1=C(O)c2ccccc2S(=O)(=O)N1Cc1ccccc1)c1ccccc1`: the IC50 in data set [1] is 1.22 µM; in data set [3] it was 2.26 µM. For the same molecule, the Ratio IC50 in data set [2] is 0.54.
For `O=C(N/N=C/c1cccc(Cl)c1)C1=C(O)c2ccccc2S(=O)(=O)N1Cc1ccccc1` the same measures were 0.96 µM, 36.4 µM and 0.02.
Consider `C/C(=N\NC(=O)C1=C(O)c2ccccc2S(=O)(=O)N1)c1ccc(Cl)cc1`, for which the values for the IC50 in data set [1] and in data set [3] were at least 100 µM and 10.9 µM, respectively. Moreover, the Ratio IC50 in data set [2] was over 9.17.
For `NNC(=O)C1=C(O)c2ccccc2S(=O)(=O)N1Cc1ccccc1` the same measures were at least 100 µM, 10.6 µM and over 9.43.
`CCOc1ccc(/C=N/NC(=O)C2=C(O)c3ccccc3S(=O)(=O)N2Cc2ccccc2)cc1`: the half-maximal inhibitory concentration (IC50) was 28.3 µM in data set [1] and 5.78 µM in data set [3]. Also, the Ratio IC50 in data set [2] is 4.89.
For `COC(=O)C1=C(O)c2ccccc2S(=O)(=O)N1C` the same measures were 26.6 µM, 23.1 µM and 1.15.
For the molecule `COc1ccc(/C=N/NC(=O)C2=C(O)c3ccccc3S(=O)(=O)N2)cc1`, the figures for the IC50 in data set [1] and in data set [3] were 5.76 µM and 1.91 µM, respectively. Moreover, the Ratio IC50 in data set [2] was determined as 3.02.
As for `O=C(N/N=C/c1ccc(Cl)cc1)C1=C(O)c2ccccc2S(=O)(=O)N1Cc1ccccc1`, the IC50 in data set [1] was at least 100 µM; in data set [3] it was 2.08 µM. In addition, the Ratio IC50 in data set [2] was over 48.1.
With `Cc1ccc(/C=N/NC(=O)C2=C(O)c3ccccc3S(=O)(=O)N2Cc2ccccc2)cc1`, the half-inhibitory concentration (IC50) in data set [1] was at least 100 µM; in data set [3], 89.1 µM. In addition, in data set [2], the Ratio IC50 was over 1.12.
For `O=C(N/N=C/c1ccccc1)C1=C(O)c2ccccc2S(=O)(=O)N1Cc1ccccc1`, the IC50 in data set [1] was at least 100 µM; in data set [3], 9.52 µM. Further, in data set [2], the Ratio IC50 is over 10.5.
Take `O=C(N/N=C/c1ccc(Cl)cc1)C1=C(O)c2ccccc2S(=O)(=O)N1`: the half-maximal inhibitory concentration (IC50) came out at 0.177 µM in data set [1] and 0.31 µM in data set [3]. Besides, the Ratio IC50 in data set [2] is 0.57.
For `Cc1ccc(/C=N/NC(=O)C2=C(O)c3ccccc3S(=O)(=O)N2)cc1`, in that order: 7.48 µM, 0.64 µM and 11.7.
Consider `COC(=O)C1=C(O)c2ccccc2S(=O)(=O)N1Cc1ccccc1`, for which the half-maximal inhibitory concentration (IC50) is 9.51 µM in data set [1] and 0.29 µM in data set [3]. Further, the Ratio IC50 in data set [2] is 32.8.
For `C/C(=N\NC(=O)C1=C(O)c2ccccc2S(=O)(=O)N1Cc1ccccc1)c1ccc(F)cc1` the same measures were at least 100 µM, 6.04 µM and over 16.5.
Take `CN1C(C(=O)N/N=C/c2ccccc2)=C(O)c2ccccc2S1(=O)=O`: the figures for the IC50 in data set [1] and in data set [3] were 21.1 µM and 1.76 µM, respectively. Besides, in data set [2], the Ratio IC50 came out at 11.9.
For `CCOc1ccc(/C=N/NC(=O)C2=C(O)c3ccccc3S(=O)(=O)N2)cc1`, in that order: 16.9 µM, 9.31 µM and 1.81.
Regarding `O=C(N/N=C/c1ccccc1O)C1=C(O)c2ccccc2S(=O)(=O)N1Cc1ccccc1`, the half-maximal inhibitory concentration (IC50) in data set [1] was determined as 18.7 µM; in data set [3] it was 4.24 µM. For the same molecule, the Ratio IC50 in data set [2] is 4.41.
For the molecule `CN1C(C(=O)N/N=C/c2ccccc2O)=C(O)c2ccccc2S1(=O)=O`, the results for the IC50 in data set [1] and in data set [3] were 11.4 µM and 3.41 µM, respectively. Also, in data set [2], the Ratio IC50 is 3.34.
Turning to `C/C(=N\NC(=O)C1=C(O)c2ccccc2S(=O)(=O)N1)c1ccc(F)cc1`, the results for the IC50 in data set [1] and in data set [3] were 53.4 µM and 40.3 µM, respectively. Besides, the Ratio IC50 in data set [2] worked out at 1.32.
For the molecule `CN1C(C(=O)N/N=C/c2cccc(Cl)c2)=C(O)c2ccccc2S1(=O)=O`, the values for the IC50 in data set [1] and in data set [3] were 29.8 µM and 38.3 µM, respectively. The Ratio IC50 in data set [2] amounted to 0.78.
For `C/C(=N\NC(=O)C1=C(O)c2ccccc2S(=O)(=O)N1C)c1ccc(F)cc1` the same measures were 10.8 µM, 25.1 µM and 0.43.
Take `CN1C(C(=O)NN)=C(O)c2ccccc2S1(=O)=O`: the concentration for half-maximal inhibition (IC50) worked out at 0.12 µM in data set [1] and 1.5 µM in data set [3]. For the same molecule, in data set [2], the Ratio IC50 stood at 0.08.
In the case of `CC(C)c1ccc(/C=N/NC(=O)C2=C(O)c3ccccc3S(=O)(=O)N2C)cc1`, the IC50 was 0.44 µM in data set [1] and 18.2 µM in data set [3]. Also, in data set [2], the Ratio IC50 worked out at 0.02.
For `O=C(N/N=C/c1ccccc1)C1=C(O)c2ccccc2S(=O)(=O)N1`, the IC50 in data set [1] worked out at 1.91 µM; in data set [3], 8.86 µM. The Ratio IC50 in data set [2] was 0.21.
Turning to `C/C(=N\NC(=O)C1=C(O)c2ccccc2S(=O)(=O)N1C)c1ccccc1`, the values for the half-maximal inhibitory concentration (IC50) in data set [1] and in data set [3] were 6.67 µM and 7.14 µM, respectively. Further, in data set [2], the Ratio IC50 was found to be 0.93.
With `COc1ccc(/C=N/NC(=O)C2=C(O)c3ccccc3S(=O)(=O)N2Cc2ccccc2)cc1`, the half-inhibitory concentration (IC50) came out at 0.24 µM in data set [1] and 0.29 µM in data set [3]. Also, the Ratio IC50 in data set [2] is 0.83.
